Structures are written as SMILES. Values after ≈ are worked out from the molar mass of the structure shown. Like-named read-outs stand apart in the source and are kept apart here.

For data set [1], the system named is Mammalian Vero cell lines (MV cell lines). The experiment in a line: MTT-based cytotoxicity. It counts as cell-based. Here is the method: (§1) Cellular conversion of MTT (3-(4,5-dimethylthiazo-2-yl)-2,5-diphenyl-tetrazolium bromide) into a formazan product was performed to evaluate the cytotoxic activity (IC50) of some of the compounds against A549 (lung adenocarcinoma) MV cell lines up to a concentration of […] using a Promega Cell Titer 96 non-radioactive cell proliferation assay with cisplatin as the positive control. The IC50 values given in Table 6 are the averages ± SEM of three independent measurements.

Data set [2] relates to A549 (lung adenocarcinoma) cell lines. The experiment in a line: MTT-based cytotoxicity. Type of data set: cell-based, human. The method, then:
as §1

Another data set relates to M. tuberculosis H37Rv. Put plainly: Antitubercular activity, Microplate Alamar Blue assay (MABA). It counts as cell-based. Particulars: Mycobacterium tuberculosis, average of triplicate tests.
A further data set concerns S. aureus (Gram +ve). Put plainly: Antibacterial activity, broth microdilution. It counts as cell-based. To be noted: Staphylococcus aureus. In general terms: In broth dilution the organism is exposed to a series of concentrations in liquid medium.
Another data set deals with E. coli (Gram −ve). Put plainly: Antibacterial activity, broth microdilution. It counts as cell-based. Particulars: Escherichia coli.
For the next data set, the target named is MtDHFR (Mycobacterium tuberculosis, UniProt P9WNX1). Put plainly: biochemical. Particulars: for MtDHFR inhibitory activity (in words): in vitro assay. It counts as biochemical.
Data set [3] concerns the target InhA (enoyl ACP reductase) (Mycobacterium tuberculosis, UniProt P9WGR1). Put plainly: Enoyl ACP reductase (InhA) inhibition. Type of data set: biochemical. Particulars: for enoyl ACP reductase inhibitory activity (in words): in vitro assay.
Data set [4] in a line: MTT-based cytotoxicity. To be noted: African green monkey; MTT assay, Mammalian Vero cell lines, means ± SEM of three independent experiments; read-out: IC50 MV Cell Lines (cytotoxicity). It counts as cell-based. The method, then: as §1
On the technique in general: Tetrazolium dyes change colour on reduction, which living cells bring about.

Data set [5] can be described thus: MTT-based cytotoxicity. To be noted: human; MTT assay, A549 lung adenocarcinoma, means ± SEM of three independent experiments. Type of data set: cell-based, human. Here is the method:
as §1

InhA (enoyl ACP reductase), sequence (P9WGR1 whole entry, looked up): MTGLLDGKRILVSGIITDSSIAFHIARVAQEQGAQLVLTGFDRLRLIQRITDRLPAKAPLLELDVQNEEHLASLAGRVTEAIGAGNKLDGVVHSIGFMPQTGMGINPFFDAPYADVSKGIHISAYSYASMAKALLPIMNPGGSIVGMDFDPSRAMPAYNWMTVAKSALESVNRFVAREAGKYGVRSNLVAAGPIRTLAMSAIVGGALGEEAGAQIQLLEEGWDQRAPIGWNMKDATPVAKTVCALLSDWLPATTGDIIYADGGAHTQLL
MtDHFR, sequence (P9WNX1 whole entry): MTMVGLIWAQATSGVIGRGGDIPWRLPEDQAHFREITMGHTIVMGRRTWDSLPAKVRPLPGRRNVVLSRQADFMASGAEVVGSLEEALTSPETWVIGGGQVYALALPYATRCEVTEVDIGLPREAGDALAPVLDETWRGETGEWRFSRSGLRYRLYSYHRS

Regarding `NNC(=O)c1ccncc1` [INH, reference compound], the IC50 in data set [1] and in data set [2] was above 450 µM throughout.

For the molecule `Cc1ccc(C)n1-c1ccc(C(=O)NNC(=O)Cc2ccc(Cl)cc2)cc1` [Compound 5f, N′-(2-(4-Chlorophenyl)acetyl)-4-(2,5-dimethyl-1H-pyrrol-1-yl)benzohydrazide], the figures for the MIC against M. tuberculosis H37Rv, with S. aureus (Gram +ve) and with E. coli (Gram −ve) were 1.6 µg/mL (≈ 4.19 µM), 1.6 µg/mL (≈ 4.19 µM) and 50 µg/mL (≈ 131 µM), respectively. For the same molecule, the figures for the half-inhibitory concentration (IC50) at MtDHFR, in “MTT-based cytotoxicity [4]” and in “MTT-based cytotoxicity [5]” were 25 µM, 215 ± 0.2 µM and 216 ± 0.5 µM, respectively. Moreover, the “MtDHFR inhibitory activity (in words)” value at MtDHFR was “promising enzyme inhibitory activity”. Further, in data set [3], 50 µM produced 76% inhibition. Also, in [3], the “enoyl ACP reductase inhibitory activity (in words)” value is recorded as “promising enzyme inhibitory activity”.

`[H]/N=C(/N)N[C@H]1[C@H](O)[C@@H](O)[C@H](O[C@@H]2O[C@@H](C)[C@](O)(C=O)[C@H]2O[C@@H]2O[C@@H](CO)[C@H](O)[C@@H](O)[C@@H]2NC)[C@@H](N/C(N)=N\[H])[C@@H]1O` [Streptomycin, reference compound]: it took 6.25 µg/mL (≈ 10.7 µM) to inhibit growth against M. tuberculosis H37Rv (MIC).

With `COc1ccc(CC(=O)NNC(=O)c2ccc(-n3c(C)ccc3C)cc2)cc1` [Compound 5d, 4-(2,5-Dimethyl-1H-pyrrol-1-yl)-N′-(2-(4-methoxyphenyl)acetyl)benzohydrazide], the minimal inhibitory concentration (MIC) (commonly the smallest concentration in the dilution series that meets the test's criterion for growth inhibition) stood at 3.25 µg/mL (≈ 8.61 µM) in the data set with M. tuberculosis H37Rv, 3.12 µg/mL (≈ 8.27 µM) in the data set with S. aureus (Gram +ve) and 100 µg/mL (≈ 265 µM) against E. coli (Gram −ve). Also, the IC50 (usually the concentration that gives 50% inhibition) against MtDHFR was found to be 85 µM; in “MTT-based cytotoxicity [4]”, 214 ± 0.6 µM; in “MTT-based cytotoxicity [5]”, 214 ± 0.2 µM. The inhibition (commonly the drop in the measured response relative to a control, in per cent) at 50 µM in [3] came to 32%.

For the molecule `O=C(O)c1cn(C2CC2)c2cc(N3CCNCC3)c(F)cc2c1=O` [Ciprofloxacin, reference compound], the MIC against S. aureus (Gram +ve) and against E. coli (Gram −ve) was 2 µg/mL (≈ 6.04 µM) throughout.

For the molecule `Cc1ccc(C)n1-c1ccc(C(=O)NNC(=O)Cc2cccc(Cl)c2)cc1` [Compound 5h, N′-(2-(3-Chlorophenyl)acetyl)-4-(2,5-dimethyl-1H-pyrrol-1-yl)benzohydrazide], the MIC against M. tuberculosis H37Rv was 3.25 µg/mL (≈ 8.51 µM); against S. aureus (Gram +ve), 6.25 µg/mL (≈ 16.4 µM); in the data set with E. coli (Gram −ve), 50 µg/mL (≈ 131 µM). Also, at MtDHFR, the IC50 turned out to be 30 µM.

`Cc1ccc(C)n1-c1ccc(C(=O)NNC(=O)Cc2cccc(Br)c2)cc1` [Compound 5m, 4-(2,5-Dimethyl-1H-pyrrol-1-yl)-N′-(2-(3-bromophenyl)acetyl)benzohydrazide]: the MIC in the data set with M. tuberculosis H37Rv is 3.25 µg/mL (≈ 7.62 µM); against S. aureus (Gram +ve), 12.5 µg/mL (≈ 29.3 µM); with E. coli (Gram −ve), 50 µg/mL (≈ 117 µM). On MtDHFR, this molecule displayed an IC50 of 18 µM.

Regarding `Cc1ccc(C)n1-c1ccc(C(=O)NNC(=O)Cc2ccccc2Br)cc1` [Compound 5j, N′-(2-(2-Bromophenyl)acetyl)-4-(2,5-dimethyl-1H-pyrrol-1-yl)benzohydrazide], the results for the MIC against M. tuberculosis H37Rv, in the data set with S. aureus (Gram +ve) and in the data set with E. coli (Gram −ve) were 1.6 µg/mL (≈ 3.75 µM), 6.25 µg/mL (≈ 14.7 µM) and 50 µg/mL (≈ 117 µM), respectively. On MtDHFR, this molecule registered an IC50 of 15 µM.

On to `Cc1ccc(C)n1-c1ccc(C(=O)NNC(=O)Cc2ccc([N+](=O)[O-])cc2)cc1` [Compound 5n, 4-(2,5-Dimethyl-1H-pyrrol-1-yl)-N′-(2-(4-nitrophenyl)acetyl)benzohydrazide], for which the MIC against M. tuberculosis H37Rv turned out to be 1.6 µg/mL (≈ 4.08 µM); against S. aureus (Gram +ve) it was 12.5 µg/mL (≈ 31.9 µM); with E. coli (Gram −ve), 50 µg/mL (≈ 127 µM). At MtDHFR, this molecule displayed an IC50 of 15 µM.

In the case of `Cc1ccc(C)n1-c1ccc(C(=O)NNC(=O)Cc2ccccc2Cl)cc1` [Compound 5g, N′-(2-(2-Chlorophenyl)acetyl)-4-(2,5-dimethyl-1H-pyrrol-1-yl)benzohydrazide], the MIC with M. tuberculosis H37Rv is 3.25 µg/mL (≈ 8.51 µM); with S. aureus (Gram +ve), 3.12 µg/mL (≈ 8.17 µM); with E. coli (Gram −ve), 50 µg/mL (≈ 131 µM). Also, the IC50 at MtDHFR was determined as 26 µM.

As for `Cc1ccc(C)n1-c1ccc(C(=O)NNC(=O)Cc2ccc(Br)cc2)cc1` [Compound 5i, N′-(2-(4-Bromophenyl)acetyl)-4-(2,5-dimethyl-1H-pyrrol-1-yl)benzohydrazide], the minimum inhibitory concentration (MIC) stood at 1.6 µg/mL (≈ 3.75 µM) against M. tuberculosis H37Rv, 6.25 µg/mL (≈ 14.7 µM) against S. aureus (Gram +ve) and 50 µg/mL (≈ 117 µM) against E. coli (Gram −ve). Besides, the figures for the IC50 against MtDHFR, in the data set “MTT-based cytotoxicity [4]” and in the data set “MTT-based cytotoxicity [5]” were 18 µM, 218 ± 0.3 µM and 214 ± 0.4 µM, respectively. Besides, the “MtDHFR inhibitory activity (in words)” value at MtDHFR is “promising enzyme inhibitory activity”. For the same molecule, the inhibition at 50 µM in data set [3] came to 72%. Besides, the “enoyl ACP reductase inhibitory activity (in words)” value in data set [3] is on record as “promising enzyme inhibitory activity”.

Consider `Cc1ccccc1CC(=O)NNC(=O)c1ccc(-n2c(C)ccc2C)cc1` [Compound 5b, 4-(2,5-Dimethyl-1H-pyrrol-1-yl)-N′-(2-(o-tolyl)acetyl)benzohydrazide], for which the results for the MIC against M. tuberculosis H37Rv, with S. aureus (Gram +ve) and in the data set on E. coli (Gram −ve) were 25 µg/mL (≈ 69.2 µM), 0.8 µg/mL (≈ 2.21 µM) and 50 µg/mL (≈ 138 µM), respectively. The same molecule came in with an IC50 against MtDHFR of 125 µM.

For `COc1ccccc1CC(=O)NNC(=O)c1ccc(-n2c(C)ccc2C)cc1` [Compound 5e, 4-(2,5-Dimethyl-1H-pyrrol-1-yl)-N′-(2-(2-methoxyphenyl)acetyl)benzohydrazide], the MIC against M. tuberculosis H37Rv came out at 6.25 µg/mL (≈ 16.6 µM); in the data set with S. aureus (Gram +ve), 6.25 µg/mL (≈ 16.6 µM); with E. coli (Gram −ve) it was 100 µg/mL (≈ 265 µM). For the same molecule, half-maximal inhibition on MtDHFR (IC50) required 78 µM.

Consider `NC(=O)c1cnccn1` [Pyrazinamide, reference compound], for which it took 3.12 µg/mL (≈ 25.4 µM) to inhibit growth against M. tuberculosis H37Rv (MIC).

Regarding `Cc1ccc(C)n1-c1ccc(C(=O)NNC(=O)Cc2ccc(F)cc2)cc1` [Compound 5k, 4-(2,5-Dimethyl-1H-pyrrol-1-yl)-N′-(2-(4-flurophenyl)acetyl)benzohydrazide], the MIC against M. tuberculosis H37Rv came to 0.8 µg/mL (≈ 2.19 µM); in the data set with S. aureus (Gram +ve) it was 1.6 µg/mL (≈ 4.38 µM); with E. coli (Gram −ve), 50 µg/mL (≈ 137 µM). The IC50 against MtDHFR worked out at 10 µM; in “MTT-based cytotoxicity [4]” it was 221 ± 0.3 µM; in the data set “MTT-based cytotoxicity [5]”, 219 ± 0.4 µM. Moreover, at MtDHFR, the “MtDHFR inhibitory activity (in words)” value was “promising enzyme inhibitory activity”. In [3], at 50 µM the inhibition was 88%. The “enoyl ACP reductase inhibitory activity (in words)” value in data set [3] is recorded as “promising enzyme inhibitory activity”.

Regarding `Cc1ccc(C)n1-c1ccc(C(=O)NNC(=O)Cc2ccccc2)cc1` [Compound 5a, 4-(2,5-Dimethyl-1H-pyrrol-1-yl)-N′-(2-phenylacetyl)benzohydrazide], the MIC against M. tuberculosis H37Rv stood at 25 µg/mL (≈ 72 µM); in the data set with S. aureus (Gram +ve) it was 50 µg/mL (≈ 144 µM); in the data set with E. coli (Gram −ve) it was 50 µg/mL (≈ 144 µM). Further, the half-inhibitory concentration (IC50) against MtDHFR stood at 146 µM.

Take `Cc1ccc(CC(=O)NNC(=O)c2ccc(-n3c(C)ccc3C)cc2)cc1` [Compound 5c, 4-(2,5-Dimethyl-1H-pyrrol-1-yl)-N′-(2-(p-tolyl)acetyl)benzohydrazide]: the MIC is 25 µg/mL (≈ 69.2 µM) against M. tuberculosis H37Rv, 3.12 µg/mL (≈ 8.63 µM) with S. aureus (Gram +ve) and 50 µg/mL (≈ 138 µM) in the data set on E. coli (Gram −ve). Besides, the figures for the IC50 against MtDHFR, in “MTT-based cytotoxicity [4]” and in the data set “MTT-based cytotoxicity [5]” were 118 µM, 221 ± 0.8 µM and 219 ± 0.7 µM, respectively. For the same molecule, testing at 50 µM in [3] gave an inhibition of 20%.

`Cc1ccc(C)n1-c1ccc(C(=O)NNC(=O)Cc2ccc(O)cc2)cc1` [Compound 5l, 4-(2,5-Dimethyl-1H-pyrrol-1-yl)-N′-(2-(4-hydroxyphenyl)acetyl)benzohydrazide]: the MIC against M. tuberculosis H37Rv amounted to 3.25 µg/mL (≈ 8.94 µM); with S. aureus (Gram +ve), 6.25 µg/mL (≈ 17.2 µM); in the data set with E. coli (Gram −ve), 50 µg/mL (≈ 138 µM). On MtDHFR, the IC50 came out at 30 µM.
